Results taken from the NIST ThermoML archive (doi:10.1021/je400055v).

Assay: xn = mol fraction of the nth substance listed
Conditions: Liquid, Vibrating tube method

CCCCCCCCCCC [undecane] + CCCCCCC
Conditions | mass density [kg/m3]
333.04 K, 8001 kPa, x2 = 0.5063 | 694.1
333.04 K, 9000 kPa, x2 = 0.5063 | 695
333.04 K, 10000 kPa, x2 = 0.5063 | 696
333.04 K, 11000 kPa, x2 = 0.5063 | 696.9
333.04 K, 12000 kPa, x2 = 0.5063 | 697.8
333.04 K, 13000 kPa, x2 = 0.5063 | 698.7
333.04 K, 14000 kPa, x2 = 0.5063 | 699.6
333.04 K, 15000 kPa, x2 = 0.5063 | 700.5
333.04 K, 16000 kPa, x2 = 0.5063 | 701.4
333.04 K, 17001 kPa, x2 = 0.5063 | 702.2
333.04 K, 18000 kPa, x2 = 0.5063 | 703.1
333.04 K, 19000 kPa, x2 = 0.5063 | 703.9
333.04 K, 20000 kPa, x2 = 0.5063 | 704.7
333.04 K, 21001 kPa, x2 = 0.5063 | 705.6
333.04 K, 22050 kPa, x2 = 0.5063 | 706.3
333.04 K, 23000 kPa, x2 = 0.5063 | 707.1
333.04 K, 24000 kPa, x2 = 0.5063 | 707.9
333.04 K, 25000 kPa, x2 = 0.5063 | 708.7
333.05 K, 1000 kPa, x2 = 0.7482 | 670.8
333.05 K, 2000 kPa, x2 = 0.7482 | 672
333.05 K, 3000 kPa, x2 = 0.7482 | 673.1
333.05 K, 4000 kPa, x2 = 0.7482 | 674.3
333.05 K, 5000 kPa, x2 = 0.7482 | 675.4
333.05 K, 6000 kPa, x2 = 0.7482 | 676.4
333.05 K, 7000 kPa, x2 = 0.7482 | 677.5
333.05 K, 8000 kPa, x2 = 0.7482 | 678.6
333.05 K, 9000 kPa, x2 = 0.7482 | 679.6
333.05 K, 10000 kPa, x2 = 0.7482 | 680.6
333.05 K, 11000 kPa, x2 = 0.7482 | 681.6
333.05 K, 12000 kPa, x2 = 0.7482 | 682.6
333.05 K, 13000 kPa, x2 = 0.7482 | 683.6
333.05 K, 14000 kPa, x2 = 0.7482 | 684.5
333.05 K, 15000 kPa, x2 = 0.7482 | 685.4
333.05 K, 16000 kPa, x2 = 0.7482 | 686.4
333.05 K, 17000 kPa, x2 = 0.7482 | 687.3
333.05 K, 18000 kPa, x2 = 0.7482 | 688.2
333.05 K, 19000 kPa, x2 = 0.7482 | 689
333.05 K, 20000 kPa, x2 = 0.7482 | 689.9
333.05 K, 21000 kPa, x2 = 0.7482 | 690.8
333.05 K, 22000 kPa, x2 = 0.7482 | 691.6
333.05 K, 23000 kPa, x2 = 0.7482 | 692.4
333.05 K, 24000 kPa, x2 = 0.7482 | 693.2
333.05 K, 25000 kPa, x2 = 0.7482 | 694
333.09 K, 1001 kPa, x2 = 0.05 | 709.1
333.09 K, 1004 kPa, x2 = 0.2346 | 701.3
333.09 K, 2001 kPa, x2 = 0.05 | 710.1
333.09 K, 2004 kPa, x2 = 0.2346 | 702.3
333.09 K, 3000 kPa, x2 = 0.05 | 711
333.09 K, 3003 kPa, x2 = 0.2346 | 703.3
333.09 K, 4000 kPa, x2 = 0.05 | 712
333.09 K, 4003 kPa, x2 = 0.2346 | 704.2
333.09 K, 5000 kPa, x2 = 0.05 | 712.9
333.09 K, 5003 kPa, x2 = 0.2346 | 705.2
333.09 K, 6000 kPa, x2 = 0.05 | 713.8
333.09 K, 6003 kPa, x2 = 0.2346 | 706.1
333.09 K, 7000 kPa, x2 = 0.05 | 714.7
333.09 K, 7003 kPa, x2 = 0.2346 | 707
333.09 K, 8001 kPa, x2 = 0.05 | 715.6
333.09 K, 8002 kPa, x2 = 0.2346 | 708
333.09 K, 9000 kPa, x2 = 0.05 | 716.5
333.09 K, 9002 kPa, x2 = 0.2346 | 708.9
333.09 K, 10000 kPa, x2 = 0.05 | 717.3
333.09 K, 10002 kPa, x2 = 0.2346 | 709.7
333.09 K, 11000 kPa, x2 = 0.05 | 718.2
333.09 K, 11002 kPa, x2 = 0.2346 | 710.6
333.09 K, 12000 kPa, x2 = 0.05 | 719
333.09 K, 12002 kPa, x2 = 0.2346 | 711.5
333.09 K, 13000 kPa, x2 = 0.05 | 719.9
333.09 K, 13001 kPa, x2 = 0.2346 | 712.3
333.09 K, 14000 kPa, x2 = 0.05 | 720.7
333.09 K, 14001 kPa, x2 = 0.2346 | 713.2
333.09 K, 15000 kPa, x2 = 0.05 | 721.5
333.09 K, 15002 kPa, x2 = 0.2346 | 714
333.09 K, 16000 kPa, x2 = 0.05 | 722.3
333.09 K, 16002 kPa, x2 = 0.2346 | 714.8
333.09 K, 17000 kPa, x2 = 0.05 | 723.1
333.09 K, 17002 kPa, x2 = 0.2346 | 715.6
333.09 K, 18000 kPa, x2 = 0.05 | 723.8
333.09 K, 18002 kPa, x2 = 0.2346 | 716.4
333.09 K, 19000 kPa, x2 = 0.05 | 724.6
333.09 K, 19001 kPa, x2 = 0.2346 | 717.2
333.09 K, 20000 kPa, x2 = 0.05 | 725.4
333.09 K, 20002 kPa, x2 = 0.2346 | 718
333.09 K, 21000 kPa, x2 = 0.05 | 726.1
333.09 K, 21035 kPa, x2 = 0.2346 | 718.8
333.09 K, 22001 kPa, x2 = 0.05 | 726.8
333.09 K, 22036 kPa, x2 = 0.2346 | 719.5
333.09 K, 23000 kPa, x2 = 0.05 | 727.6
333.09 K, 23038 kPa, x2 = 0.2346 | 720.3
333.09 K, 24000 kPa, x2 = 0.05 | 728.3
333.09 K, 24039 kPa, x2 = 0.2346 | 721
333.09 K, 25000 kPa, x2 = 0.05 | 729
333.09 K, 25041 kPa, x2 = 0.2346 | 721.8
